Data: ChEMBL document CHEMBL3507680, “University of Dundee, Gates Library screen for HepG2 cell viability”

experiment: Human HepG2 cell viability assay in 384 well format; type: toxicity, cell-based; set-up: dose 125 nL, time 70.5 hour; concentration not given beside the values; details: HepG2 cells, read-out: Inhibition

Point of comparison: `COc1cccc(CN(C)C(=O)c2ccc(NC(C)=O)s2)c1OC`, cytotoxicity at 70.5 h -62.7%. Against it:
- N#Cc1ccc(OC2CCN(C(=O)Cc3cccs3)CC2)nc1 — higher, -0.57%
- CC(C)CC(=O)N[C@H](C)c1c(-c2ccc(Cl)cc2)noc1C(=O)O — higher, -7.33%
- COC[C@@]12CC[C@@H](N3CCOCC3)C[C@H]1CCN(c1ncccc1F)C2 — higher, -6.47%
- c1csc(CN2CCO[C@H]3[C@H](OCC4CCCC4)CC[C@@H]32)n1 — higher, -1.77%
- Cc1cccc(CN2CCS(=O)(=O)[C@@H]3CCN(S(C)(=O)=O)CC[C@@H]32)n1 — higher, 17.2%
- CC(C)N(C)CC(=O)NCC(Cc1ccc(F)cc1)C(N)=O (centres undefined) — higher, 1.22%
- CCN(CC)[C@@H]1CN(Cc2cnn(C)c2)[C@@H]2COC[C@H]12 — higher, -5.97%
- Cc1nc(CN2CCCC(Nc3ncnc4c3CCC4)C2)no1 (centres undefined) — higher, -7.99%
- CCOC(=O)C1CCCN(Cc2cc(C#N)n(C)c2C)C1 (centres undefined) — higher, -11.7%
- O=C(NCCOc1ccc2c(c1)OCO2)C1CC(=O)N(C2CC2)C1 (centres undefined) — higher, 3.82%
- CCN1CC2(CCC1=O)CCN(CCOc1ccc(F)cc1)CC2 — higher, -13%
- CC(C)Cn1nnnc1SC(C(=O)NCc1cccnc1)C(C)C (centres undefined) — higher, -4.78%
- CCOc1cncc(N2CCOCC2)n1 — higher, -7.42%
- CC(=O)N1CC2(CCCN2Cc2ccc(Cl)cc2)Cc2ccccc21 (centres undefined) — higher, 31.4%
- Cc1oc(C(=O)O)cc1S(=O)(=O)Nc1cc(Br)ccc1F — higher, -7.4%
- CCN(CC)C(=O)c1ccc(Cl)c(NC(=O)c2cc(C(C)C)on2)c1 — higher, -12.4%
- O=C(c1cnccn1)N1CCc2onc(CN3CCCC3)c2C1 — higher, 1.69%
- O=C1CN(c2ccc(CNC(=O)c3ccc[nH]3)cc2F)CCN1 — higher, 1.47%
- CC(C)(C)n1nnnc1CN(Cc1ccccc1)Cc1ccc(Cl)cc1 — higher, 8.17%
- c1ccc(CN2Cc3nccn3CC(Cn3cccn3)C2)nc1 (centres undefined) — higher, -3.5%
- CCS(=O)(=O)N1CCO[C@H]2[C@H](Oc3ncccc3F)CC[C@@H]21 — higher, -11.9%
- CN(CCc1ccncc1)C(=O)C1CSCN1C(=O)CC(C)(C)C (centres undefined) — higher, -12.5%
- O=C(COc1coc(CN2CCCCC2)cc1=O)c1ccc(Cl)cc1 — higher, -23.2%
- COCCCN1CC2(CCCN(c3ncc4nc[nH]c4n3)C2)CCC1=O (centres undefined) — higher, -11.3%
- Cc1ccc(CN2CCN(C)c3ncccc3C2)o1 — higher, -6.49%
- CN(C)C(=O)N1CCN(c2ccc3ccc(C(=O)NC4CC4)cn23)CC1 — higher, 11.8%
- O=C(NC1CC1)c1cccc(Oc2ccc3nncn3n2)c1 — higher, -4.61%
- CC(=O)N1CCN(c2cc(CCNC(=O)C(C)C)nc(C3CC3)n2)CC1 — higher, -7.84%
- COc1ccc(OC)c(-c2csc(-c3cccc(C(=O)O)c3)n2)c1 — higher, -16.7%
- O=C(O)[C@@H]1CN(C(=O)c2ccc(Cl)cc2)C[C@H]1c1cccc(F)c1 — higher, -12.9%
- CCc1ccc(C(=O)NCCNc2ncccn2)cc1 — higher, 11.9%
- CCc1cnc(N2CC[C@H]3[C@@H]2CCC(=O)N3c2ccccc2)nc1 — higher, 14.1%
- Cc1ccc(N2CC[C@H]3OCC[C@@]3(C(=O)N3CCCC3)C2)nn1 — higher, -9.8%
- CCc1noc(CN2CCN(C(=O)COC)CC2)n1 — higher, 6.94%
- Cc1cccc(-c2nc(CN(Cc3cccs3)CC3CCCO3)no2)c1 (centres undefined) — higher, -1.72%
- CCC(C)C(=O)NCc1cccc(N2CCCCC2=O)c1 (centres undefined) — higher, -4.37%
- COc1ccc(CCN2CCN(C(=O)c3scnc3C)CC2)cc1 — higher, -5.8%
- CC(C)c1nc(C2CCCN2C(=O)c2nccnc2N)no1 (centres undefined) — higher, -7.76%
- CCSc1ccccc1C(=O)N(CCOC)Cc1ccoc1 — higher, 25%
- CCc1noc(C(C)N2CCN(Cc3ncc(C(C)(C)C)o3)CC2)n1 (centres undefined) — higher, 11.8%
- CC(=O)N1CCOCC2(CN(Cc3ccc(C)o3)CCO2)C1 (centres undefined) — higher, 28.8%
- CN(CCC(O)c1ccccc1)c1cc(C2CC2)ncn1 (centres undefined) — higher, -6.59%
- N#Cc1nccnc1N1CCC(C(O)c2cccs2)CC1 (centres undefined) — higher, 10.4%
